Reference: ChEMBL document CHEMBL1148995, “Antitumor agents from bohemic acid complex, VI. Schaunardimycin” (J Nat Prod, 1984)

Tests used:
L1210 [1] = assay: Antitumor activity against mouse L1210 cells implanted in CDF1 mouse assessed as median survival time at 12.8 mg/kg, ip single dose on day 1; type: functional; details: route intraperitoneal
L1210 [2] = assay: Antitumor activity against mouse L1210 cells implanted in CDF1 mouse assessed as median survival time at 6.4 mg/kg, ip single dose on day 1; type: functional; details: route intraperitoneal
L1210 [3] = assay: Antitumor activity against mouse L1210 cells implanted in CDF1 mouse assessed as median survival time at 3.2 mg/kg, ip single dose on day 1; type: functional; details: route intraperitoneal
L1210 [4] = assay: Antitumor activity against mouse L1210 cells implanted in CDF1 mouse assessed as median survival time at 1.6 mg/kg, ip single dose on day 1; type: functional; details: route intraperitoneal
L1210 [5] = assay: Antitumor activity against mouse L1210 cells implanted in CDF1 mouse assessed as median survival time at 0.8 mg/kg, ip single dose on day 1; type: functional; details: route intraperitoneal
L1210 [6] = assay: Antitumor activity against mouse L1210 cells implanted in CDF1 mouse assessed as median survival time at 0.4 mg/kg, ip single dose on day 1; type: functional; details: route intraperitoneal
L1210 [7] = assay: Antitumor activity against mouse L1210 cells implanted in CDF1 mouse assessed as median survival time at 0.2 mg/kg, ip single dose on day 1; type: functional; details: route intraperitoneal
L1210 [8] = assay: Antitumor activity against mouse L1210 cells implanted in CDF1 mouse assessed as median survival time at 6.4 mg/kg, ip qd for 1 to 5 days; type: functional; details: route intraperitoneal
L1210 [9] = assay: Antitumor activity against mouse L1210 cells implanted in CDF1 mouse assessed as median survival time at 3.2 mg/kg, ip qd for 1 to 5 days; type: functional; details: route intraperitoneal
L1210 [10] = assay: Antitumor activity against mouse L1210 cells implanted in CDF1 mouse assessed as median survival time at 1.6 mg/kg, ip qd for 1 to 5 days; type: functional; details: route intraperitoneal
L1210 [11] = assay: Antitumor activity against mouse L1210 cells implanted in CDF1 mouse assessed as median survival time at 0.8 mg/kg, ip qd for 1 to 5 days; type: functional; details: route intraperitoneal
L1210 [12] = assay: Antitumor activity against mouse L1210 cells implanted in CDF1 mouse assessed as median survival time at 0.4 mg/kg, ip qd for 1 to 5 days; type: functional; details: route intraperitoneal
L1210 [13] = assay: Antitumor activity against mouse L1210 cells implanted in CDF1 mouse assessed as median survival time at 0.2 mg/kg, ip qd for 1 to 5 days; type: functional; details: route intraperitoneal
L1210 [14] = assay: Antitumor activity against mouse L1210 cells implanted in CDF1 mouse at 12.8 mg/kg, ip single dose on day 1 relative to control; type: functional; details: route intraperitoneal
L1210 [15] = assay: Antitumor activity against mouse L1210 cells implanted in CDF1 mouse at 6.4 mg/kg, ip single dose on day 1 relative to control; type: functional; details: route intraperitoneal
L1210 [16] = assay: Antitumor activity against mouse L1210 cells implanted in CDF1 mouse at 3.2 mg/kg, ip single dose on day 1 relative to control; type: functional; details: route intraperitoneal
L1210 [17] = assay: Antitumor activity against mouse L1210 cells implanted in CDF1 mouse at 1.6 mg/kg, ip single dose on day 1 relative to control; type: functional; details: route intraperitoneal
L1210 [18] = assay: Antitumor activity against mouse L1210 cells implanted in CDF1 mouse at 0.8 mg/kg, ip single dose on day 1 relative to control; type: functional; details: route intraperitoneal
L1210 [19] = assay: Antitumor activity against mouse L1210 cells implanted in CDF1 mouse at 0.4 mg/kg, ip single dose on day 1 relative to control; type: functional; details: route intraperitoneal
L1210 [20] = assay: Antitumor activity against mouse L1210 cells implanted in CDF1 mouse at 0.2 mg/kg, ip single dose on day 1 relative to control; type: functional; details: route intraperitoneal
L1210 [21] = assay: Antitumor activity against mouse L1210 cells implanted in CDF1 mouse at 6.4 mg/kg, ip qd for 1 to 5 days relative to control; type: functional; details: route intraperitoneal
L1210 [22] = assay: Antitumor activity against mouse L1210 cells implanted in CDF1 mouse at 3.2 mg/kg, ip qd for 1 to 5 days relative to control; type: functional; details: route intraperitoneal
L1210 [23] = assay: Antitumor activity against mouse L1210 cells implanted in CDF1 mouse at 1.6 mg/kg, ip qd for 1 to 5 days relative to control; type: functional; details: route intraperitoneal
L1210 [24] = assay: Antitumor activity against mouse L1210 cells implanted in CDF1 mouse at 0.8 mg/kg, ip qd for 1 to 5 days relative to control; type: functional; details: route intraperitoneal
L1210 [25] = assay: Antitumor activity against mouse L1210 cells implanted in CDF1 mouse at 0.4 mg/kg, ip qd for 1 to 5 days relative to control; type: functional; details: route intraperitoneal
Mus musculus [26] = assay: Toxicity in mouse L1210 cells implanted CDF1 mouse assessed as average weight gain at 12.8 mg/kg, ip single dose on day 1; type: organism-based; parameters: dose 12.8 mg/kg, route intraperitoneal; details: in vivo
Mus musculus [27] = assay: Toxicity in mouse L1210 cells implanted CDF1 mouse assessed as average weight gain at 6.4 mg/kg, ip single dose on day 1; type: organism-based; parameters: dose 6.4 mg/kg, route intraperitoneal; details: in vivo
Mus musculus [28] = assay: Toxicity in mouse L1210 cells implanted CDF1 mouse assessed as average weight gain at 3.2 mg/kg, ip single dose on day 1; type: organism-based; parameters: dose 3.2 mg/kg, route intraperitoneal; details: in vivo
Mus musculus [29] = assay: Toxicity in mouse L1210 cells implanted CDF1 mouse assessed as average weight gain at 1.6 mg/kg, ip single dose on day 1; type: organism-based; parameters: dose 1.6 mg/kg, route intraperitoneal; details: in vivo
Mus musculus [30] = assay: Toxicity in mouse L1210 cells implanted CDF1 mouse assessed as average weight gain at 0.8 mg/kg, ip single dose on day 1; type: organism-based; parameters: dose 0.8 mg/kg, route intraperitoneal; details: in vivo
Mus musculus [31] = assay: Toxicity in mouse L1210 cells implanted CDF1 mouse assessed as average weight gain at 0.4 mg/kg, ip single dose on day 1; type: organism-based; parameters: dose 0.4 mg/kg, route intraperitoneal; details: in vivo
Mus musculus [32] = assay: Toxicity in mouse L1210 cells implanted CDF1 mouse assessed as average weight gain at 0.2 mg/kg, ip single dose on day 1; type: organism-based; parameters: dose 0.2 mg/kg, route intraperitoneal; details: in vivo
Mus musculus [33] = assay: Toxicity in mouse L1210 cells implanted CDF1 mouse assessed as average weight gain at 6.4 mg/kg, ip qd for 1 to 5 days; type: organism-based; parameters: dose 6.4 mg/kg, route intraperitoneal; details: in vivo
Mus musculus [34] = assay: Toxicity in mouse L1210 cells implanted CDF1 mouse assessed as average weight gain at 3.2 mg/kg, ip qd for 1 to 5 days; type: organism-based; parameters: dose 3.2 mg/kg, route intraperitoneal; details: in vivo
Mus musculus [35] = assay: Toxicity in mouse L1210 cells implanted CDF1 mouse assessed as average weight gain at 1.6 mg/kg, ip qd for 1 to 5 days; type: organism-based; parameters: dose 1.6 mg/kg, route intraperitoneal; details: in vivo
Mus musculus [36] = assay: Toxicity in mouse L1210 cells implanted CDF1 mouse assessed as average weight gain at 0.8 mg/kg, ip qd for 1 to 5 days; type: organism-based; parameters: dose 0.8 mg/kg, route intraperitoneal; details: in vivo
Mus musculus [37] = assay: Toxicity in mouse L1210 cells implanted CDF1 mouse assessed as average weight gain at 0.4 mg/kg, ip qd for 1 to 5 days; type: organism-based; parameters: dose 0.4 mg/kg, route intraperitoneal; details: in vivo
Mus musculus [38] = assay: Toxicity in mouse L1210 cells implanted CDF1 mouse assessed as average weight gain at 0.2 mg/kg, ip qd for 1 to 5 days; type: organism-based; parameters: dose 0.2 mg/kg, route intraperitoneal; details: in vivo
Mus musculus [39] = assay: Toxicity in mouse L1210 cells implanted CDF1 mouse assessed as survivors on day 5 at 12.8 mg/kg, ip single dose on day 1; type: organism-based; parameters: dose 12.8 mg/kg, route intraperitoneal; details: in vivo
Mus musculus [40] = assay: Toxicity in mouse L1210 cells implanted CDF1 mouse assessed as survivors on day 5 at 6.4 mg/kg, ip single dose on day 1; type: organism-based; parameters: dose 6.4 mg/kg, route intraperitoneal; details: in vivo
Mus musculus [41] = assay: Toxicity in mouse L1210 cells implanted CDF1 mouse assessed as survivors on day 5 at 3.2 mg/kg, ip single dose on day 1; type: organism-based; parameters: dose 3.2 mg/kg, route intraperitoneal; details: in vivo
Mus musculus [42] = assay: Toxicity in mouse L1210 cells implanted CDF1 mouse assessed as survivors on day 5 at 1.6 mg/kg, ip single dose on day 1; type: organism-based; parameters: dose 1.6 mg/kg, route intraperitoneal; details: in vivo
Mus musculus [43] = assay: Toxicity in mouse L1210 cells implanted CDF1 mouse assessed as survivors on day 5 at 0.8 mg/kg, ip single dose on day 1; type: organism-based; parameters: dose 0.8 mg/kg, route intraperitoneal; details: in vivo
Mus musculus [44] = assay: Toxicity in mouse L1210 cells implanted CDF1 mouse assessed as survivors on day 5 at 0.4 mg/kg, ip single dose on day 1; type: organism-based; parameters: dose 0.4 mg/kg, route intraperitoneal; details: in vivo
Mus musculus [45] = assay: Toxicity in mouse L1210 cells implanted CDF1 mouse assessed as survivors on day 5 at 3.2 mg/kg, ip qd for 1 to 5 days; type: organism-based; parameters: dose 3.2 mg/kg, route intraperitoneal; details: in vivo
Mus musculus [46] = assay: Toxicity in mouse L1210 cells implanted CDF1 mouse assessed as survivors on day 5 at 1.6 mg/kg, ip qd for 1 to 5 days; type: organism-based; parameters: dose 1.6 mg/kg, route intraperitoneal; details: in vivo
Mus musculus [47] = assay: Toxicity in mouse L1210 cells implanted CDF1 mouse assessed as survivors on day 5 at 0.8 mg/kg, ip qd for 1 to 5 days; type: organism-based; parameters: dose 0.8 mg/kg, route intraperitoneal; details: in vivo
Mus musculus [48] = assay: Toxicity in mouse L1210 cells implanted CDF1 mouse assessed as survivors on day 5 at 0.4 mg/kg, ip qd for 1 to 5 days; type: organism-based; parameters: dose 0.4 mg/kg, route intraperitoneal; details: in vivo
Mus musculus [49] = assay: Toxicity in mouse L1210 cells implanted CDF1 mouse assessed as survivors on day 5 at 0.2 mg/kg, ip qd for 1 to 5 days; type: organism-based; parameters: dose 0.2 mg/kg, route intraperitoneal; details: in vivo
Mus musculus [50] = assay: Toxicity in mouse L1210 cells implanted CDF1 mouse assessed as median survival time at 25.6 mg/kg, ip single dose on day 1; type: organism-based; parameters: dose 25.6 mg/kg, route intraperitoneal; details: in vivo
L1210 [51] = assay: Antitumor activity against mouse L1210 cells implanted in CDF1 mouse at 0.2 mg/kg, ip qd for 1 to 5 days relative to control; type: functional; details: route intraperitoneal

CC[C@@]1(O)C[C@H](O[C@H]2C[C@H](N(C)C)[C@H](O[C@H]3C[C@H](O)[C@H](O)[C@H](C)O3)[C@H](C)O2)c2c(cc3c(c2O)C(=O)c2c(O)ccc(O)c2C3=O)[C@H]1C(=O)OC [MUSETTAMYCIN]
MST (L1210 [1]): 10 days
MST (L1210 [2]): 9.5 days
MST (L1210 [3]): 8 days
MST (L1210 [4]): 8 days
MST (L1210 [5]): 7 days
MST (L1210 [6]): 6.5 days
MST (L1210 [7]): 6 days
MST (L1210 [8]): 6 days
MST (L1210 [9]): 10 days
MST (L1210 [10]): 9.5 days
MST (L1210 [11]): 8 days
MST (L1210 [12]): 7 days
MST (L1210 [13]): 6.5 days
T/C (L1210 [14]): 167%
T/C (L1210 [15]): 158%
T/C (L1210 [16]): 133%
T/C (L1210 [17]): 133%
T/C (L1210 [18]): 117%
T/C (L1210 [19]): 108%
T/C (L1210 [20]): 100%
T/C (L1210 [21]): 100%
T/C (L1210 [22]): 167%
T/C (L1210 [23]): 158%
T/C (L1210 [24]): 133%
T/C (L1210 [25]): 117%
Activity (Mus musculus [26]): -2.3 g
Activity (Mus musculus [27]): 0.3 g
Activity (Mus musculus [28]): 0.8 g
weight gain (Mus musculus [29]): 0.7 g
weight gain (Mus musculus [30]): 2.6 g
weight gain (Mus musculus [31]): 2.7 g
weight gain (Mus musculus [32]): 2.7 g
Activity (Mus musculus [33]): -1.9 g
Activity (Mus musculus [34]): -1.2 g
weight gain (Mus musculus [35]): 0.3 g
weight gain (Mus musculus [36]): 1.4 g
weight gain (Mus musculus [37]): 2.3 g
weight gain (Mus musculus [38]): 2.8 g
Activity (Mus musculus [39]): Active
Activity (Mus musculus [40]): Active
Activity (Mus musculus [41]): Active
Activity (Mus musculus [42]): Active
Activity (Mus musculus [43]): Active
Activity (Mus musculus [44]): Active
Activity (Mus musculus [45]): Active
Activity (Mus musculus [46]): Active
Activity (Mus musculus [47]): Active
Activity (Mus musculus [48]): Active
Activity (Mus musculus [49]): Active
Activity (Mus musculus [50]): Toxic
T/C (L1210 [51]): 117%
